SMILES strings stand for the structures.

The target in the assay is T1, human glucocorticoid receptor (Homo sapiens, UniProt P04150).
T1 construct: purified human recombinant full-length glucocorticoid receptor (2 nM); purchased Invitrogen Part #2893
T1 sequence (P04150 1-777): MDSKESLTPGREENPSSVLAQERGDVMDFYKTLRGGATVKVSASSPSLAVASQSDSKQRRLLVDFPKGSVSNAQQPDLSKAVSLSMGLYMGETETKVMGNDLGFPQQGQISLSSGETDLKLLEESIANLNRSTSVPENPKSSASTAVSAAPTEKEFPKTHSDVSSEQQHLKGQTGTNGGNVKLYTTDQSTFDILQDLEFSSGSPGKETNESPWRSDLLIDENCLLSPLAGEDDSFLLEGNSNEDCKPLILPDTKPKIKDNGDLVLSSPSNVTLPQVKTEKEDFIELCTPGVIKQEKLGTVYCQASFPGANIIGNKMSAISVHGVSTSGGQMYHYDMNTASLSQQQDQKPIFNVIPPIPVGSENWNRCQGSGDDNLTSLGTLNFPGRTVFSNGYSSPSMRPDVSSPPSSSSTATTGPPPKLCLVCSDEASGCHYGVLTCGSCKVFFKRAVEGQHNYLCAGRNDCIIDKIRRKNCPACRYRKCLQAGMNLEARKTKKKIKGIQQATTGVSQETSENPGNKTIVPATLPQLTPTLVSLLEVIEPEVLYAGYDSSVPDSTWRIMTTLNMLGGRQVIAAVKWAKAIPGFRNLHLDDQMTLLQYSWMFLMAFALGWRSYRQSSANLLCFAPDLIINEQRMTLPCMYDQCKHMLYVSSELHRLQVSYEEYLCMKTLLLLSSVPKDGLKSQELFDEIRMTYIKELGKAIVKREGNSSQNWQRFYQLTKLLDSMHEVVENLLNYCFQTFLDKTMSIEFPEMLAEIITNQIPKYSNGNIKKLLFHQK
Put plainly: Glucocorticoid Receptor Binding Assay (I), fluorescence polarization competitor kit. Particulars: purified human recombinant full-length GR, Fluormone GS Red. On the procedure:
Glucocorticoid Receptor Binding Assay (I)^a
In order to assess the affinity of test compounds for the human glucocorticoid receptor, a commercially available kit was used (Glucocorticoid Receptor Competitor Assay Kit, Invitrogen Part #2893). Briefly, purified human recombinant full-length glucocorticoid receptor (2 nM) was mixed with fluorescently labeled glucocorticoid (1 nM Fluormone GS Red) in the presence or absence of test compound. After two hour incubation at room temperature in the dark, the fluorescence polarization (FP) of the samples was measured. The FP of a mixture of receptor, fluorescent probe (i.e. Fluormone GS Red) and 5 μM dexamethasone represented background fluorescence or 100% inhibition, whereas, the FP of the mixture without dexamethasone (but in the presence of vehicle) was taken to be 100% binding. The percentage inhibition of test compounds were then compared to the sample with 5 μM dexamethasone and expressed as % relative binding activity with dexamethasone being 100% and no inhibition is 0%. Test compounds were analyzed in the concentration range from 8.5E-05 μM to 5 μM.
As to `CC(C)(C(=O)Nc1nncs1)[C@H](c1cccc(F)c1)c1ccc(-c2ccc(C(=O)O)c(F)c2)s1` [Example 63, 2-fluoro-4-(5-((1S)-1-(3-fluorophenyl)-2,2-dimethyl-3-oxo-3-(1,3,4-thiadiazol-2-ylamino)propyl)-2-thienyl)benzoic acid], the Ki (as a rule, the equilibrium dissociation constant of an inhibitor or competing ligand from its target) was found to be 565 nM. On to `CCN(CC)C(=O)c1ccc(-c2ccc([C@H](c3cccc(F)c3)C(C)(C)C(=O)Nc3nncs3)s2)cc1` [Example 69, N,N-diethyl-4-(5-((1R)-1-(3-fluorophenyl)-2,2-dimethyl-3-oxo-3-(1,3,4-thiadiazol-2-ylamino)propyl)-2-thienyl)benzamide], for which the Ki is 1.03 nM. The result for `CC(C)(C(=O)Nc1nncs1)[C@@H](c1cccc(F)c1)c1ccc(-c2ccc(C(=O)N3CCCCC3)cc2)s1` [Example 71, (3R)-3-(3-fluorophenyl)-2,2-dimethyl-3-(5-(4-(1-piperidinylcarbonyl)phenyl)-2-thienyl)-N-1,3,4-thiadiazol-2-ylpropanamide] reads 1.51 nM; that for `CCCN(CCC)C(=O)c1ccc(-c2ccc([C@H](c3cccc(F)c3)C(C)(C)C(=O)Nc3nncs3)s2)cc1` [Example 72, 4-(5-((1R)-1-(3-fluorophenyl)-2,2-dimethyl-3-oxo-3-(1,3,4-thiadiazol-2-ylamino)propyl)-2-thienyl)-N,N-dipropylbenzamide], 29.8 nM; that for `CCNC(=O)c1ccc(-c2ccc([C@H](c3cccc(F)c3)C(C)(C)C(=O)Nc3nncs3)s2)cc1` [Example 73, N-ethyl-4-(5-((1R)-1-(3-fluorophenyl)-2,2-dimethyl-3-oxo-3-(1,3,4-thiadiazol-2-ylamino)propyl)-2-thienyl)benzamide], 6.13 nM. The result for `CC(C)(C(=O)Nc1nncs1)[C@@H](c1cccc(F)c1)c1ccc(-c2ccc(C(N)=O)cc2)s1` [Example 74, 4-(5-((1R)-1-(3-fluorophenyl)-2,2-dimethyl-3-oxo-3-(1,3,4-thiadiazol-2-ylamino)propyl)-2-thienyl)benzamide] reads 2.24 nM.

Consider `CNC(=O)c1ccc(-c2ccc([C@H](c3cccc(F)c3)C(C)(C)C(=O)Nc3nncs3)s2)cc1` [Example 75, 4-(5-((1R)-1-(3-fluorophenyl)-2,2-dimethyl-3-oxo-3-(1,3,4-thiadiazol-2-ylamino)propyl)-2-thienyl)-N-methylbenzamide], for which the Ki worked out at 1.52 nM. Regarding `CC(C)(C)NC(=O)c1ccc(-c2ccc([C@H](c3cccc(F)c3)C(C)(C)C(=O)Nc3nncs3)s2)cc1` [Example 76, N-tert-butyl-4-(5-((1R)-1-(3-fluorophenyl)-2,2-dimethyl-3-oxo-3-(1,3,4-thiadiazol-2-ylamino)propyl)-2-thienyl)benzamide], the Ki was found to be 27 nM. For `CC(C)(C(=O)Nc1nncs1)[C@@H](c1cccc(F)c1)c1ccc(-c2ccc(C(=O)NC3CC3)cc2)s1` [Example 77, N-cyclopropyl-4-(5-((1R)-1-(3-fluorophenyl)-2,2-dimethyl-3-oxo-3-(1,3,4-thiadiazol-2-ylamino)propyl)-2-thienyl)benzamide] the value was 4.19 nM; for `CC(C)(C(=O)Nc1nncs1)[C@@H](c1cccc(F)c1)c1ccc(-c2ccc(C(=O)O)c(F)c2)s1` [Example 78, 2-fluoro-4-(5-((1R)-1-(3-fluorophenyl)-2,2-dimethyl-3-oxo-3-(1,3,4-thiadiazol-2-ylamino)propyl)-2-thienyl)benzoic acid], 24.5 nM; for `CC(C)(C(=O)Nc1nncs1)[C@@H](c1cccc(F)c1)c1ccc(-c2ccc(C(=O)N3CCC3)cc2)s1` [Example 81, (3R)-3-(5-(4-(1-azetidinylcarbonyl)phenyl)-2-thienyl)-3-(3-fluorophenyl)-2,2-dimethyl-N-1,3,4-thiadiazol-2-ylpropanamide], 4.32 nM. For the molecule `CC(C)(C(=O)Nc1nncs1)[C@@H](c1cccc(F)c1)c1ccc(-c2ccc(C(=O)N3CCC3)c(F)c2)s1` [Example 82, (3R)-3-(5-(4-(1-azetidinylcarbonyl)-3-fluorophenyl)-2-thienyl)-3-(3-fluorophenyl)-2,2-dimethyl-N-1,3,4-thiadiazol-2-ylpropanamide], the Ki was 2.66 nM. For `CN(C)C(=O)c1ccc(-c2ccc(C(c3cc(F)cc(F)c3)C(C)(C)C(=O)Nc3nncs3)s2)cc1Cl` (stereo not shown) [Example 91, 2-chloro-4-(5-(1-(3,5-difluorophenyl)-2,2-dimethyl-3-oxo-3-(1,3,4-thiadiazol-2-ylamino)propyl)-2-thienyl)-N,N-dimethylbenzamide] the value was 4.59 nM; for `CCN(C)C(=O)c1ccc(-c2ccc(C(c3cc(F)cc(F)c3)C(C)(C)C(=O)Nc3nncs3)s2)cc1` (stereo not shown) [Example 92, 4-(5-(1-(3,5-difluorophenyl)-2,2-dimethyl-3-oxo-3-(1,3,4-thiadiazol-2-ylamino)propyl)-2-thienyl)-N-ethyl-N-methylbenzamide], 1.14 nM; for `C[C@H](C(=O)Nc1nncs1)[C@@H](c1cccc(F)c1)c1ccc(Br)s1` [Example 94, (2S,3S)-3-(5-bromo-2-thienyl)-3-(3-fluorophenyl)-2-methyl-N-1,3,4-thiadiazol-2-ylpropanamide], 4.11 nM. The result for `C[C@H](C(=O)Nc1nncs1)[C@H](c1cccc(F)c1)c1ccc(Br)s1` [Example 95, (2S,3R)-3-(5-bromo-2-thienyl)-3-(3-fluorophenyl)-2-methyl-N-1,3,4-thiadiazol-2-ylpropanamide] reads 0.76 nM; that for `C[C@@H](C(=O)Nc1nncs1)[C@H](c1cccc(F)c1)c1ccc(Br)s1` [Example 97, (2R,3R)-3-(5-bromo-2-thienyl)-3-(3-fluorophenyl)-2-methyl-N-1,3,4-thiadiazol-2-ylpropanamide], 1.96 nM; that for `CCN(C)C(=O)c1ccc(-c2ccc([C@H](c3cccc(F)c3)[C@H](C)C(=O)Nc3nncs3)s2)cc1` [Example 106, N-ethyl-4-(5-((1S,2S)-1-(3-fluorophenyl)-2-methyl-3-oxo-3-(1,3,4-thiadiazol-2-ylamino)propyl)-2-thienyl)-N-methylbenzamide], 2.44 nM. For `C[C@H](C(=O)Nc1nncs1)[C@@H](c1cccc(F)c1)c1ccc(-c2ccc(C(=O)N3CCOCC3)cc2)s1` [Example 108, (2S,3S)-3-(3-fluorophenyl)-2-methyl-3-(5-(4-(4-morpholinylcarbonyl)phenyl)-2-thienyl)-N-1,3,4-thiadiazol-2-ylpropanamide] the value was 5.39 nM. For `C[C@@H](C(=O)Nc1nncs1)[C@H](c1cccc(F)c1)c1ccc(-c2ccc(C(=O)N3CCC3)c(F)c2)s1` [Example 122, (2R,3R)-3-(5-(4-(1-azetidinylcarbonyl)-3-fluorophenyl)-2-thienyl)-3-(3-fluorophenyl)-2-methyl-N-1,3,4-thiadiazol-2-ylpropanamide], the Ki was determined as 1.91 nM. In the case of `C[C@H](C(=O)Nc1nncs1)[C@@H](c1cccc(F)c1)c1ccc(-c2ccc(C(=O)N(C)C)c(Cl)c2)s1` [Example 123, 2-chloro-4-(5-((1S,2S)-1-(3-fluorophenyl)-2-methyl-3-oxo-3-(1,3,4-thiadiazol-2-ylamino)propyl)-2-thienyl)-N,N-dimethylbenzamide], the Ki was 7.16 nM. The result for `C[C@H](C(=O)Nc1nncs1)[C@@H](c1cccc(F)c1)c1ccc(-c2ccc(C(=O)N3CCOCC3)c(Cl)c2)s1` [Example 124, (2S,3S)-3-(5-(3-chloro-4-(4-morpholinylcarbonyl)phenyl)-2-thienyl)-3-(3-fluorophenyl)-2-methyl-N-1,3,4-thiadiazol-2-ylpropanamide] reads 7.27 nM.

Source of the values: US8222247B2, “Modulators of glucocorticoid receptor, AP-1, and/or NF-kappabeta activity and use thereof” (Bristol-Myers Squibb Company, priority 2006, dated 2012).
